Read-outs that look alike come from different tables or passages of the source.
Tests used:
TLR4 = assay type: cell-based, human; conditions: THP-1; for inhibition of LPS-induced TNFα production: 6 h
cell viability = experiment: MTT cell viability assay, more detailed investigation of screening hits; assay type: cell-based; conditions: cell type not stated
Method: Cell viability was measured by assessing mitochondrial function using an MTT (3-(4,5-Dimethylthiazol-2-yl)-2,5-diphenyltetrazolium bromide) assay. Cells were seeded into 96 well plates and treated with peptides and agonists as described above in relation to the Figs. Wells containing medium only served as a blank control. To terminate treatment of cells, medium was removed and the cells were washed once with PBS. 200 μl per well of 1 mg/ml MTT in PBS was added directly to the cells and the plates were incubated at 37° C. for 14-16 hrs in the dark. MTT was then removed and 200 μl per well of dimethyl sulphoxide (DMSO) was added and cells incubated for 20 min at 37° C. in the dark, prior to absorbance being read at 595 nm on a spectrophotometer.

TLR2 = molecular target: T1, TLR2 (Homo sapiens, UniProt O60603); experiment: Pam3CysK4-induced TNFα in THP-1 cells, ELISA; assay type: cell-based; conditions: peptide 1, 5 or 10 μM
T1 construct: endogenous in cells; host or cells: PMA-differentiated THP-1
T1 sequence (O60603 21-784): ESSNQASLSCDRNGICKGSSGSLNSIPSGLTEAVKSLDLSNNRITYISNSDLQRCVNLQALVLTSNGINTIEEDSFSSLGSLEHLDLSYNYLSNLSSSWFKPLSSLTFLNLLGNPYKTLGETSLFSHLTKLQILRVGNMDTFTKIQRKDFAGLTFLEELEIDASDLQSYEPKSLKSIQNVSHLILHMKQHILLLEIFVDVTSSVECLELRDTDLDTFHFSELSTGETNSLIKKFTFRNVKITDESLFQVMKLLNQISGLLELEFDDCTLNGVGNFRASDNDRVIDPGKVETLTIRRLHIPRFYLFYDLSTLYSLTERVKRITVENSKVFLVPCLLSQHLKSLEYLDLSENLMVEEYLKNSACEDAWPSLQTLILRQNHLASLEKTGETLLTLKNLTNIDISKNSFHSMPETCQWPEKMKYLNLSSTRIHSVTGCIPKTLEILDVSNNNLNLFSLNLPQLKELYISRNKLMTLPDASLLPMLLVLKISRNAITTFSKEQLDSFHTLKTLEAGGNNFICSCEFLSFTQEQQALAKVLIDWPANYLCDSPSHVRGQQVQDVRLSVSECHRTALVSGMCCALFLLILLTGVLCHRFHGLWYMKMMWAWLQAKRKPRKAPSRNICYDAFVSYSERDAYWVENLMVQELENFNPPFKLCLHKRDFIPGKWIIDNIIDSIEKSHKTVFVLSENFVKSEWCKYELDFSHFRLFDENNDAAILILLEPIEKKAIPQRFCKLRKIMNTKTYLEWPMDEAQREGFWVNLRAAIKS
T1 sequence (Q15399 25-786 partner): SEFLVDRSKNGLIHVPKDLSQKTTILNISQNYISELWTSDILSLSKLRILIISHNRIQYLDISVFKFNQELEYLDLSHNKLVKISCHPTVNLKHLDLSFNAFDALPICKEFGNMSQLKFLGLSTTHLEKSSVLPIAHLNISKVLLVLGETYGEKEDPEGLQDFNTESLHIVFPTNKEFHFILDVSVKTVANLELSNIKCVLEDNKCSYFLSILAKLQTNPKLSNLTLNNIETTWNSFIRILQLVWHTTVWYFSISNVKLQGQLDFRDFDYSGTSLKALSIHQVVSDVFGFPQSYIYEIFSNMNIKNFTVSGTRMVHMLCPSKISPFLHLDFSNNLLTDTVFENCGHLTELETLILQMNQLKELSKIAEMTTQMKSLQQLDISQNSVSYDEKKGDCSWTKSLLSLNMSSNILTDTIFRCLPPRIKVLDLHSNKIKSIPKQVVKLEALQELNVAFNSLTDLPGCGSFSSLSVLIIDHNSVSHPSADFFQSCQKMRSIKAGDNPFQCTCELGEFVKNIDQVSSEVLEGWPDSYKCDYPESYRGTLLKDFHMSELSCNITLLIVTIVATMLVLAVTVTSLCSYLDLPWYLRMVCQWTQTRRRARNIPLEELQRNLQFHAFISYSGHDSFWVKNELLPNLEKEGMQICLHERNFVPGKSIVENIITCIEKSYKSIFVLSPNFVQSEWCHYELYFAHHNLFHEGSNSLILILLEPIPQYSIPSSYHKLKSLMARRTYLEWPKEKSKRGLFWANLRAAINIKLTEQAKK
Method: FIGS. 9A and B are bar charts showing the effect of A464 on Pam3CysK4-induced TNFα in human THP-1 cells. Cells were seeded in 96 well plates (3×10^5 cells/ml) and differentiated with 200 nM PMA for 24 hours before treatment. A464 (SEQ ID NO. 20) was added to the cells at a concentration of 1, 5 or 10 μM 1 hour before stimulating with either 100 ng/ml (A) or 10 ng/ml Pam3CysK4 (B). Supernatants were collected 24 hours after stimulation and assayed for TNFα by ELISA. Cells from (B) were also assayed for viability by the MTT assay (C). No peptides were added to the control wells (black bars). Data is representative of at least three experiments each performed in triplicate and is expressed as mean±s.d;
Cytokine and chemokine production from cells or mouse serum was measured by ELISA using Duoset kits from R&D systems, according to the manufacturer's instructions.
In order to determine whether A464 (SEQ ID No. 20) was specific for TLR4, other TLR pathways were next assayed for sensitivity to A464 (SEQ ID No. 20). A scrambled version of A464 (SEQ ID No. 20) peptide was designed to use as a further control peptide, and this had the sequence: […] (ConA464, SEQ ID No. 32). The A464R (SEQ ID No. 20) and ConA464 (SEQ ID No. 32) peptides were assayed for inhibition of TLR2 signalling in THP-1 cells. […]

TLR4, sequence (O00206 24-839): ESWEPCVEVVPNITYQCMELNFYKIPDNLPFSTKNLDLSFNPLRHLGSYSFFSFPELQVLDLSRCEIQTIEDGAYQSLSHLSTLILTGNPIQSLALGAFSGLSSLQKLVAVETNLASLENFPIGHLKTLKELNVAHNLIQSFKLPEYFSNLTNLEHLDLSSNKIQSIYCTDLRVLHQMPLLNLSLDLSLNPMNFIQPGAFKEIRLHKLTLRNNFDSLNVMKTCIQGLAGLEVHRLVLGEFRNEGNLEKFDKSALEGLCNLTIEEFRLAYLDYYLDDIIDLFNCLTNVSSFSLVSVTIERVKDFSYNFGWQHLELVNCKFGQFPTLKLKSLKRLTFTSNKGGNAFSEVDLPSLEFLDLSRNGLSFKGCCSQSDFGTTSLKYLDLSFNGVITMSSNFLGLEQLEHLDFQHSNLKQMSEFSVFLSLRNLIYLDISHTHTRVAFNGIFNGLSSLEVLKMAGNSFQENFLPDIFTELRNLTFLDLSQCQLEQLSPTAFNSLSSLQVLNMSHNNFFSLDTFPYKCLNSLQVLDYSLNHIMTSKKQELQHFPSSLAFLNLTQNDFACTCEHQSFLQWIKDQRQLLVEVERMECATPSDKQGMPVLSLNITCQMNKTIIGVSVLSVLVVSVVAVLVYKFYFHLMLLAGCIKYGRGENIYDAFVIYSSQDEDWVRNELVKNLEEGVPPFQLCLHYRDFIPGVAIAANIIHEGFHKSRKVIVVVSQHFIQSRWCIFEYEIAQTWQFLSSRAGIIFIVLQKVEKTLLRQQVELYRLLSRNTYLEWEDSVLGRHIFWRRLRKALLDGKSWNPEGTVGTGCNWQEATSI
TLR4, sequence (Q9Y6Y9 17-160 partner limits assumed): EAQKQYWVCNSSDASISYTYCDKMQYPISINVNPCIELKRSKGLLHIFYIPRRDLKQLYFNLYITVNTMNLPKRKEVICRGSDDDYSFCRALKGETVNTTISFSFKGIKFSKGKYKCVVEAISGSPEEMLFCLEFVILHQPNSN

Sequence: KYSFKLILAEYRRRRRRRRR [Peptide A464]
- inhibition of LPS-induced hTNFα production, peptide added after LPS (TLR4; 5 and 10 μM peptide added 1 hour after LPS stimulation): almost completely inhibited
- inhibition of LPS-induced TNFα production (TLR4; peptide 5 or 10 μM 1 h before 10 ng/ml LPS): complete inhibition of TLR4 was achieved at 5 and 10 μM
- inhibition of LPS-induced TNFα production (TLR4; peptide 20 or 40 μM 1 h before 100 ng/ml LPS): 20 μM A464 (SEQ ID No. 20) inhibited TLR4-mediated TNFα production
- cell viability (MTT assay) (cell viability): less toxic
- inhibition of Pam3CysK4-induced hTNFα secretion (TLR2; 10 ng/ml Pam3CysK4, 24 h): slightly heightened
- inhibition of Pam3CysK4-induced hTNFα secretion (TLR2; 100 ng/ml Pam3CysK4, 24 h): only very minor inhibitory effects
